Results from patent publication US9260504B2, “N- and C-terminal substituted antagonistic analogs of GH-RH” (University of Miami, priority 2008, dated 2016).

Assays:
Assay type in all cases: in vivo
[1] = tested on: PC-3 human hormone-independent prostate cancer; assay: PC3 androgen-independent prostate cancer xenografts in nude mice (Example XIV)
Method: Male nude mice were implanted s.c. with 3 mm^3 pieces of PC-3 human hormone-independent prostate cancer tissue on both flanks. When tumors reached a volume of approximately 50 mm^3, the mice were divided into 8 experimental groups with 8 to 10 animals in each group and received single daily injections for 28 days as follows: 1. Control (vehicle solution); 2. P-11513 2 μg/day; 3. P-11602 2 μg/day; 4. P-11602 1 μg/day; 5. P-11604 2 μg/day; 6. P-11606 2 μg/day; 7. P-11610 2 μg/day; 8. P-11610 1 μg/day.
(§1) Tumor volumes were measured once a week. The experiment was ended on day 28 by sacrificing the mice under Isoflurane anesthesia. Resulting tumors were cleaned, weighed, and snap-frozen until further analyses. Statistical analyses of the measurement results were done by two-tailed t-test, p<0.05 being considered significant.

[2] = tested on: HT human diffuse mixed B cell lymphoma cell line; assay: HT human diffuse mixed B cell lymphoma xenografts in nude mice; conditions: 5 μg/day s.c.
Method: The aim of this study was to find out the tumor inhibitor effect of the latest GHRH antagonists (Peptide 11602, Peptide 11604, Peptide 11606, and Peptide 11610) at the dose of 5 μg/day on HT human diffuse mixed B cell lymphoma cell line. Female nude mice were xenografted subcutaneously with approximately 3 mm^3 pieces of HT malignant tumor tissue. When tumors reached the mean volume of approximately 120 mm^3, the animals were randomly assigned into different groups. Tumor volumes and body weight were measured once a week. At the end of the experiment mice were anesthetized and sacrificed. Tumors were carefully excised, weighed and were stored at −80° C. until further investigation. Organs and tumor samples were preserved in 10% formaldehyde.

[3] = tested on: Human ovarian cancer SKOV3 cells; assay: SKOV3 ovarian cancer xenografts in nude mice; conditions: 5 μg/day s.c.
Excerpt: Human ovarian cancer SKOV3 cells growing exponentially were implanted info five female nude mice by subcutaneous (s.c.) injection of 10^7 cells in both flanks. Tumors That resulted after approximately 4 weeks in donor animals were then aseptically dissected and mechanically minced. Three mm^3 pieces of tumor tissue were transplanted subcutaneously into experimental animals with a trocar needle. When tumors reached an appropriate size (approximately 50 mm^3), mice were randomly divided into […]. The first was the control group, the second group was treated with daily s.c. injections of 5 μg P-11313, the third group was treated with daily s.c. injections of 5 μg P-11604, the fourth group was treated with daily s.c. injections of 5 μg P-11610. Tumor volume (length×width×height×0.5236) was measured every week and mean tumor volumes of each group were compared by Student's t-test. The study lasted 49 days. One week after end of treatment, mice were killed under anesthesia, tumors were snap frozen and stored at −70° C.

[4] = tested on: PC-3 human hormone-independent prostate cancer; assay: PC-3 human prostate cancer xenografts in nude mice, Experiment 4; conditions: for Tumor growth after 28 days (%) / Tumor growth after 46 days (%) / Inhibition (%): 2 μg/day s.c.; for Inhibitory effect on PC-3 tumors compared with reference peptide JMR-132: 2 μg/day vs JMR-132 10 μg/day, after 46 days of treatment
Method: Male nude mice were implanted s.c. with 3 mm^3 pieces of PC-3 human hormone-independent prostate cancer tissue on both flanks. When tumors reached a volume of approximately 50 mm^3, the mice were divided into 12 experimental groups with 8 to 10 animals in each group and received single daily injections for 28 days as follows: 1. Control (vehicle solution); 2. JMR-132 (10 μg/day s.c.); 3. Peptide 11113 (2 μg/day s.c.); 4. Peptide 11119 (2 μg/day s.c.); 5. Peptide 11209 (2 μg/day s.c.); 6. Peptide 11313 (2 μg/day s.c.); 7. Peptide 11408 (2 μg/day s.c.); 8. Peptide 11435 (2 μg/day s.c.); 9. Peptide 11457 (2 μg/day s.c.); 10. Peptide 11459 (2 μg/day s.c.); 11. Peptide 11469 (2 μg/day s.c.); 12. Peptide 11491 (2 μg/day s.c.).
as §1
All experimental details of Experiment 4 are the same as for Experiment 3, with the following difference. When tumors reached a volume of approximately 50 mm^3, the mice were divided into 11 experimental groups with 8 to 10 animals in each group and received single daily injections for 46 days as follows: 1. Control (vehicle solution); 2. JMR-132 (10 μg/day s.c.); 3. Peptide 11123 (2 μg/day s.c.); 4. Peptide 11125 (2 μg/day s.c.); 5. Peptide 11213 (2 μg/day s.c.); 6. Peptide 11433 (2 μg/day s.c.); 7. Peptide 11473 (2 μg/day s.c.); 8. Peptide 11485 (2 μg/day s.c.); 9. Peptide 11497 (2 μg/day s.c.); 10. Peptide 11499 (2 μg/day s.c.); 11. Peptide 11521 (2 μg/day s.c.). Tumor volumes were measured once a week. The experiment was ended on day 46 by sacrificing the mice under Isoflurane anesthesia. Resulting tumors were cleaned, weighed, and snap-frozen until further analyses. Statistical analyses of the measurement results were done by two-tailed t-test, p<0.05 being considered significant.

Substance: PhAc^0-Tyr^1, D-Arg^2, Cpa^6, Ala^8, Har^9, (Phe(F)5)^10, His^11, Orn^12, Abu^15, His^20, Orn^21, Nle^27, D-Arg^28, Har^29-Ada^30]hGH-RH(1-29)NH2 [Peptide 11610]
- TUMOR GROWTH (%) ([1]; 1 μg/day, day 0 (baseline)): 100%
- TUMOR GROWTH (%) ([1]; 1 μg/day, day 7): 195.49%
- Tumor inhibition (%) ([1]; 1 μg/day, day 7): 40.99%
- TUMOR GROWTH (%) ([1]; 1 μg/day, day 14): 302.30%
- Tumor inhibition (%) ([1]; 1 μg/day, day 14): 48.84%
- TUMOR GROWTH (%) ([1]; 1 μg/day, day 21): 549.94%
- Tumor inhibition (%) ([1]; 1 μg/day, day 21): 53.79%
- TUMOR GROWTH (%) ([1]; 1 μg/day, day 28): 740.17%
- Tumor inhibition (%) ([1]; 1 μg/day, day 28): 60.15%
- TUMOR GROWTH (%) ([1]; 2 μg/day, day 0 (baseline)): 100%
- TUMOR GROWTH (%) ([1]; 2 μg/day, day 7): 132.24%
- Tumor inhibition (%) ([1]; 2 μg/day, day 7): 60.08%
- TUMOR GROWTH (%) ([1]; 2 μg/day, day 14): 289.25%
- Tumor inhibition (%) ([1]; 2 μg/day, day 14): 51.05%
- TUMOR GROWTH (%) ([1]; 2 μg/day, day 21): 466.31%
- Tumor inhibition (%) ([1]; 2 μg/day, day 21): 60.82%
- TUMOR GROWTH (%) ([1]; 2 μg/day, day 28): 631.89%
- Tumor inhibition (%) ([1]; 2 μg/day, day 28): 65.98%
- TUMOR GROWTH (%) ([2]; day 1 (baseline)): 100%
- Tumor inhibition (%) ([2]; day 1 (baseline)): 0%
- Tumor volume (mm^3) ([2]; day 1 (baseline)): 90.42 mm^3
- TUMOR GROWTH (%) ([2]; day 7): 183.36%
- Tumor inhibition (%) ([2]; day 7): 40.01%
- Tumor volume (mm^3) ([2]; day 7): 145.53 mm^3
- TUMOR GROWTH (%) ([2]; day 14): 307.98%
- Tumor inhibition (%) ([2]; day 14): 36.21%
- Tumor volume (mm^3) ([2]; day 14): 194.57 mm^3
- TUMOR GROWTH (%) ([2]; day 21): 361.18%
- Tumor inhibition (%) ([2]; day 21): 53.78%
- Tumor volume (mm^3) ([2]; day 21): 250.24 mm^3
- TUMOR GROWTH (%) ([2]; day 28): 519.79%
- Tumor inhibition (%) ([2]; day 28): 42.02%
- Tumor volume (mm^3) ([2]; day 28): 428.99 mm^3
- TU growth (%) ([3]; day 0 (baseline)): 100%
- TU growth (%) ([3]; day 7): 137.44%
- TU inhibition (%) ([3]; day 7): 35.89%
- TU growth (%) ([3]; day 14): 150.1%
- TU inhibition (%) ([3]; day 14): 46.44%
- TU growth (%) ([3]; day 21): 239.14%
- TU inhibition (%) ([3]; day 21): 56.00%
- TU growth (%) ([3]; day 28): 204.07%
- TU inhibition (%) ([3]; day 28): 75.76%
- TU growth (%) ([3]; day 35): 242.05%
- TU inhibition (%) ([3]; day 35): 72.89%
- TU growth (%) ([3]; day 42): 273.83%
- TU inhibition (%) ([3]; day 42): 77.85%
- TU growth (%) ([3]; day 49): 383.93%
- TU inhibition (%) ([3]; day 49): 69.82%

Substance: [PhAc^0-Tyr^1, D-Arg^2, (Phe(F)5)^6, Ala^8, Har^9, Tyr(Me)^10, His^11, Orn^12, Abu^15, His^20, Orn^21, Nle^27, D-Arg^28, Har^29-Ada^30]hGH-RH(1-29)NH2 [Peptide 11499]
- Tumor growth after 28 days (%) [4]: 782%
- Tumor growth after 46 days (%) [4]: 2178%
- Inhibition (%) ([4]; after 28 days): 42.86%
- Inhibition (%) ([4]; after 46 days): 34.59%

Substance: [(Ac-Amc)^0-Tyr^1, D-Arg^2, Cpa^6, Ala^8, Har^9, Tyr(Me)^10, His^11, Orn^12, Abu^15, His^20, Orn^21, Nle^27, D-Arg^28, Har^29-Ada^30]hGH-RH(1-29)NH2 [Peptide 11497]
- Tumor growth after 28 days (%) [4]: 872%
- Tumor growth after 46 days (%) [4]: 1658%
- Inhibitory effect on PC-3 tumors compared with reference peptide JMR-132 [4]: had a more potent inhibitory effect than reference peptide JMR-132
- Inhibition (%) ([4]; after 28 days): 36.25%
- Inhibition (%) ([4]; after 46 days): 50.22%

Substance: [Oct^0-Tyr^1, D-Arg^2, Cpa^6, Ala^8, His^9, Tyr(Et)^10, His^11, Orn^12, Abu^15, His^20, Orn^21, Nle^27, D-Arg^28, Har^29-Ada^30]hGH-RH(1-29)NH2 [Peptide 11213]
- Tumor growth after 28 days (%) [4]: 651%
- Tumor growth after 46 days (%) [4]: 1144%
- Inhibitory effect on PC-3 tumors compared with reference peptide JMR-132 [4]: had a more potent inhibitory effect than reference peptide JMR-132
- Inhibition (%) ([4]; after 28 days): 52.41%
- Inhibition (%) ([4]; after 46 days): 65.65%

Substance: [Dca^0-Tyr^1, D-Arg^2, Cpa^6, Ala^8, Har^9, Tyr(Me)^10, His^11, Orn^12, Abu^15, Har^20, Orn^21, Nle^27, D-Arg^28, Har^29]hGH-RH(1-29)NH2 [Peptide 11513]
- TUMOR GROWTH (%) ([1]; 2 μg/day, day 0 (baseline)): 100%
- TUMOR GROWTH (%) ([1]; 2 μg/day, day 7): 212.49%
- Tumor inhibition (%) ([1]; 2 μg/day, day 7): 35.86%
- TUMOR GROWTH (%) ([1]; 2 μg/day, day 14): 420.81%
- Tumor inhibition (%) ([1]; 2 μg/day, day 14): 28.79%
- TUMOR GROWTH (%) ([1]; 2 μg/day, day 21): 823.51%
- Tumor inhibition (%) ([1]; 2 μg/day, day 21): 30.80%
- TUMOR GROWTH (%) ([1]; 2 μg/day, day 28): 1420.09%
- Tumor inhibition (%) ([1]; 2 μg/day, day 28): 23.54%

Substance: [Nac^0-Tyr^1, D-Arg^2, Cpa^6, Ala^8, Har^9, Tyr(Me)^10, His^11, Orn^12, Abu^15, His^20, Orn^21, Nle^27, D-Arg^28, Har^29-AE2A^30] hGH-RH(1-29)NH2 [Peptide 11433]
- Tumor growth after 28 days (%) [4]: 956%
- Tumor growth after 46 days (%) [4]: 1890%
- Inhibition (%) ([4]; after 28 days): 30.15%
- Inhibition (%) ([4]; after 46 days): 43.23%

Substance: [(Dca-Amc)^0-Tyr^1, D-Arg^2, Cpa^6, Ala^8, Har^9, Tyr(Me)^10, His^11, Orn^12, Orn^15, His^20, Orn^21, Nle^27, D-Arg^28, Har^29-Ada^30]hGH-RH(1-29)NH2 [Peptide 11521]
- Tumor growth after 28 days (%) [4]: 877%
- Tumor growth after 46 days (%) [4]: 2427%
- Inhibition (%) ([4]; after 28 days): 35.86%
- Inhibition (%) ([4]; after 46 days): 27.11%
